How the values were obtained:
rat NaP2b (SLC34A2) = target: T1, rat NaP2b (SLC34A2) (Rattus norvegicus, UniProt Q9JJ09); assay: Inhibition of NaP2b-mediated Pi (33P) uptake in transfected HEK293 cells, rat NaP2b; assay type: cell-based; settings: 33P Pi uptake, 0.1 mM phosphate, value given as pIC50 range
T1 construct: host or cells: HEK293
T1 sequence (Q9JJ09 1-695): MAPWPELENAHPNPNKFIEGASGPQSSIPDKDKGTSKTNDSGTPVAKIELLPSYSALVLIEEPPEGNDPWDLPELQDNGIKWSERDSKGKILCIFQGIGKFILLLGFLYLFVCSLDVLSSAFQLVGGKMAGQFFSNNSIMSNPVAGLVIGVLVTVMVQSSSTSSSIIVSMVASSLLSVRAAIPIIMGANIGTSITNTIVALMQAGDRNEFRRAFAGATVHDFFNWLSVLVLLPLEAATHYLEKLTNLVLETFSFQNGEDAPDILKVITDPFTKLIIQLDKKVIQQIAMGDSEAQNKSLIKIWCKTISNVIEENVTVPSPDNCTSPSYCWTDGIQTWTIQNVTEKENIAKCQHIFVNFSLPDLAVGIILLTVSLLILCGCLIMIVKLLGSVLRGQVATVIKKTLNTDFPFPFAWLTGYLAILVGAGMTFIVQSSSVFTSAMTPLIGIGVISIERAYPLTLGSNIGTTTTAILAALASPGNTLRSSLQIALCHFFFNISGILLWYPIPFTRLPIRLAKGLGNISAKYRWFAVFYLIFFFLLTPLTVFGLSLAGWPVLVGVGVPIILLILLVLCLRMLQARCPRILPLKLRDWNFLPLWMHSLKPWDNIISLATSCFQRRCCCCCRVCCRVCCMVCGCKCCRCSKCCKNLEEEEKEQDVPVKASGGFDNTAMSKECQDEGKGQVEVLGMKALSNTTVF
In short: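 HEK293 cells were transiently transfected with NaP2b cDNA using Lipofectamine and grown near confluence. Compounds were tested at twelve concentrations from 0.1 nM to 30 uM in duplicate, and 33P-phosphate uptake was counted by scintillation after lysis. Results are expressed as pIC50.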

[1] = Stability of compounds in simulated gastric fluid (SGF); assay type: in vitro ADME; settings: simulated gastric fluid (3 mg/mL pepsin), incubation time 6 hr, relative to t=0
Experimental: (§1) Test compounds were incubated at […] in simulated gastric fluid (SGF; standard USP solution with 3 mg/mL pepsin) or simulated intestinal fluid (SIF; standard USP solution with 3 mg/mL pancreatin) for 3 hr or 6 hr. HPLC-UV or HPLC-MS were used to determine test compound levels using peak area %. Results (Table 14) were reported as the percentage of test compound remaining after incubation in a given condition relative to test compound present at t=0 in the same condition.

[2] = Stability of compounds in simulated intestinal fluid (SIF); assay type: in vitro ADME; settings: simulated intestinal fluid (3 mg/mL pancreatin), incubation time 6 hr, relative to t=0
Experimental: as §1

[3] = Determination of compound Cmax and AUC after oral gavage (plasma LC-MS/MS); assay type: in vivo, Sprague-Dawley rats; settings: Sprague-Dawley, rat, plasma, po, Structure (I) examples, Table 15, actual oral dose 3-15 mg/kg, plasma 0.5-4 h
In short: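 Sprague-Dawley rats dosed by oral gavage at nominal 2.5 or 10 mg/kg; blood drawn at 0.5, 1, 2 and 4 h into K2EDTA. Plasma protein-precipitated with acetonitrile plus internal standard and analysed by LC-MS/MS against a plasma standard curve to derive Cmax and AUC.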

Row | Compound | IC50 (rat NaP2b (SLC34A2)) [µM] | % remaining, SGF [1] [%] | % remaining, SIF [2] [%] | AUC [3] [ng·h/mL] | Cmax [3] [ng/mL]
1 | CN(CCN1CCCC[C@H]1C(=O)N(C)CCOCCOCCOCCC(=O)OC(C)(C)C)C(=O)c1cccc(C(=O)Nc2ccc(N3CCCCC3)cc2-c2cc(C(=O)N[C@H]3CCCc4ccccc43)ccn2)c1 [Example 240, tert-butyl 2-methyl-1-((S)-1-(2-(N-methyl-3-(4-(piperidin-1-yl)-2-(4-((S)-1,2,3,4-tetrahydronaphthalen-1-ylcarbamoyl)pyridin-2-yl)phenylcarbamoyl)benzamido)ethyl)piperidin-2-yl)-1-oxo-5,8,11-trioxa-2-azatetradecan-14-oate] | 1 to 7.94 | >80 | >80 | < 10 | < 10
2 | CN(CC(=O)N1CCN(CCOCCO)CC1)C(=O)c1cccc(C(=O)Nc2ccc(N3CCCCC3)cc2-c2cc(C(=O)N[C@H]3CCCc4ccccc43)ccn2)c1 [Example 246, (S)—N1-(2-(4-(2-(2-hydroxyethoxy)ethyl)piperazin-1-yl)-2-oxoethyl)-N1-methyl-N3-(4-(piperidin-1-yl)-2-(4-(1,2,3,4-tetrahydronaphthalen-1-ylcarbamoyl)pyridin-2-yl)phenyl)isophthalamide] | 1 to 7.94 | >80 | >80 | < 10 | < 10
3 | CN(CCOCCOCCOCCC(=O)O)C(=O)c1cccc(C(=O)Nc2ccc(N3CCCCC3)cc2-c2cc(C(=O)NCc3cccc(C(F)(F)F)c3)ccn2)c1 [Example 248, 3-[2-(2-{2-[N-methyl-1-(3-{[4-(piperidin-1-yl)-2-[4-({[3-(trifluoromethyl)phenyl]methyl}carbamoyl)pyridin-2-yl]phenyl}carbamoyl}phenyl)formamido]ethoxy}ethoxy)ethoxy]propanoic acid] | 10 to 31.6 | >80 | >80 | < 10 | < 10
4 | CN(CCOCCOCCOCCC(=O)N1CCN(CCOCCO)CC1)C(=O)c1cccc(C(=O)Nc2ccc(N3CCCCC3)cc2-c2cc(C(=O)N[C@H]3CCCc4ccccc43)ccn2)c1 [Example 250, 1-N-(2-{2-[2-(3-{4-[2-(2-hydroxyethoxy)ethyl]piperazin-1-yl}-3-oxopropoxy)ethoxy]ethoxy}ethyl)-1-N-methyl-3-N-[4-(piperidin-1-yl)-2-(4-{[(1S)-1,2,3,4-tetrahydronaphthalen-1-yl]carbamoyl}pyridin-2-yl)phenyl]benzene-1,3-dicarboxamide] | 1 to 7.94 | >80 | >80 | < 10 | < 10

More lines, now with the values ahead:

Row | IC50 (rat NaP2b (SLC34A2)) [µM] | % remaining, SGF [1] [%] | % remaining, SIF [2] [%] | AUC [3] [ng·h/mL] | Cmax [3] [ng/mL] | Compound
5 | 1 to 7.94 | >80 | >80 | < 10 | < 10 | COCCOCCOCCOCCOCCOCCOCCN(C)C(=O)[C@H]1CCCN(C(=O)c2cccc(C(=O)Nc3ccc(N4CCCCC4)cc3-c3cc(C(=O)N[C@H]4CCCc5ccccc54)ccn3)c2)C1 [Example 255, 2-(2-(3-((S)-3-(2,5,8,11,14,17,20-heptaoxadocosan-22-yl(methyl)carbamoyl)piperidine-1-carbonyl)benzamido)-5-(piperidin-1-yl)phenyl)-N—((S)-1,2,3,4-tetrahydronaphthalen-1-yl)isonicotinamide]
6 | 1 to 7.94 | >80 | >80 | < 10 | < 10 | COCCOCCOCCOCCOCCOCCOCCNC(=O)[C@H]1CCCN(C(=O)c2cccc(C(=O)Nc3ccc(N4CCCCC4)cc3-c3cc(C(=O)N[C@H]4CCCc5ccccc54)ccn3)c2)C1 [Example 256, 2-(2-(3-((S)-3-(2,5,8,11,14,17,20-heptaoxadocosan-22-ylcarbamoyl)piperidine-1-carbonyl)benzamido)-5-(piperidin-1-yl)phenyl)-N—((S)-1,2,3,4-tetrahydronaphthalen-1-yl)isonicotinamide]

Reference: US20140023611A1 (priority 2010, published 2014)
